Test results taken from patent publication US11033539B2, “Compounds of formulas (VII), (VIII), (IX), (XI), (XII), (XIII), and (XIV) as muscarinic receptor 4(M4) antagonists for treating neurological diseases” (Neurocrine Biosciences, Inc., priority 2015, dated 2021).

Legend:
human M3 receptor = human M3 receptor (Homo sapiens (Human), UniProt P20309); test: Radioligand (tritiated N-methylscopolamine) binding assay, M3; conditions: CHO cell membranes expressing human M3; 1.5 nM tritiated N-methylscopolamine; 90 min, 37° C.; read-out: Ki against M3 receptor (Table 21, M3)
Sequence of human M3 receptor (P20309 whole entry): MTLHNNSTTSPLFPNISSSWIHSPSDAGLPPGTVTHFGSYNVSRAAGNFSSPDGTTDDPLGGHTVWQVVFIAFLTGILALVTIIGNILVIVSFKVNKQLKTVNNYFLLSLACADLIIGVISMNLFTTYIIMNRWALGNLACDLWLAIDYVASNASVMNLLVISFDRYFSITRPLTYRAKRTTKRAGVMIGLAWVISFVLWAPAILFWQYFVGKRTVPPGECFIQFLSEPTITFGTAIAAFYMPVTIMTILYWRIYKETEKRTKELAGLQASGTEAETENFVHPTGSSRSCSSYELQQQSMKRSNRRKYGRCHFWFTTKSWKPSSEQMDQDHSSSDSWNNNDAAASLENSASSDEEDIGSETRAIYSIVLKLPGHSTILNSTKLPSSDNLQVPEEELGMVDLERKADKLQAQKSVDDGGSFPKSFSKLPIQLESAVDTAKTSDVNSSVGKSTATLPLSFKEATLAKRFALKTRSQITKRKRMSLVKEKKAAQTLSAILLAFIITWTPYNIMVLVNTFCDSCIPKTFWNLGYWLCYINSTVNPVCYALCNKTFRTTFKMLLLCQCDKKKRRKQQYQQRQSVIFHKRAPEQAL
Summary of the method: (§1)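 Ki from displacement of 1.5 nM [3H]N-methylscopolamine on membranes of CHO cells expressing each human receptor. Twelve compound concentrations (10 μM to […]), 90 min at 37° C in 50 mM HEPES, 100 mM NaCl, 5 mM MgCl2, 1 mM EDTA, pH 7.4. Bound ligand was captured by PEI-treated glass-fiber filtration and counted.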

human M2 receptor = human M2 receptor (Homo sapiens (Human), UniProt P08172); test: Radioligand (tritiated N-methylscopolamine) binding assay, M2; conditions: CHO cell membranes expressing human M2; 1.5 nM tritiated N-methylscopolamine; 90 min, 37° C.; read-out: Ki against M2 receptor (Table 21, M2)
Sequence of human M2 receptor (P08172 whole entry): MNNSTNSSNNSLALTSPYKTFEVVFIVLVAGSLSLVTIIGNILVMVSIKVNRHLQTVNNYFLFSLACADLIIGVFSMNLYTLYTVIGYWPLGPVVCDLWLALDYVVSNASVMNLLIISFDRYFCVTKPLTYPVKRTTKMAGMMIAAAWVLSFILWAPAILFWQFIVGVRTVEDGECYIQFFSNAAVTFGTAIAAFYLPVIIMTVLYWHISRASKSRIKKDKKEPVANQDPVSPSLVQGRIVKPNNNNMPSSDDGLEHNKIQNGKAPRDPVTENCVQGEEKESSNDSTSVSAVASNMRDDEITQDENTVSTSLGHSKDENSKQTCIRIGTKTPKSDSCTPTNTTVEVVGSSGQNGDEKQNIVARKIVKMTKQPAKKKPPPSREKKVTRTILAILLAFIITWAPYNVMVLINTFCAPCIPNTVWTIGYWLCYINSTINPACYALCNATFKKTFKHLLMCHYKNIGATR
Summary of the method: as §1

human M5 receptor = human M5 receptor (Homo sapiens (Human), UniProt P08912); test: Radioligand (tritiated N-methylscopolamine) binding assay, M5; conditions: CHO cell membranes expressing human M5; 1.5 nM tritiated N-methylscopolamine; 90 min, 37° C.; read-out: Ki against M5 receptor (Table 21, M5)
Sequence of human M5 receptor (P08912 whole entry): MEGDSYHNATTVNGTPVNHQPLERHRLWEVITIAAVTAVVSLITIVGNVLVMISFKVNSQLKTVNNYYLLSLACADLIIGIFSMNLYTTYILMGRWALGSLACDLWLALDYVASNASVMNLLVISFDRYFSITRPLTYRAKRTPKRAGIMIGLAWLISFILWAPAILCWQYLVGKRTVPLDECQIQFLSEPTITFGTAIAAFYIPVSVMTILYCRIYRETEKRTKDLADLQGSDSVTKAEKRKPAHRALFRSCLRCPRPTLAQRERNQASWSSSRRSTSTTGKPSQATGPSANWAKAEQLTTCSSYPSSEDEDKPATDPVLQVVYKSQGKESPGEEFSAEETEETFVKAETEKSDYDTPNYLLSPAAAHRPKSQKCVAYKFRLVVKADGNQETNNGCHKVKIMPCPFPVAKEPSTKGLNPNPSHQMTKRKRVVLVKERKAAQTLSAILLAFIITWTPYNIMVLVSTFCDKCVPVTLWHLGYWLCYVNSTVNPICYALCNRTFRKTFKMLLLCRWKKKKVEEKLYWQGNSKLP
Summary of the method: as §1

human M4 receptor = human M4 receptor (Homo sapiens (Human), UniProt P08173); test: Radioligand (tritiated N-methylscopolamine) binding assay, M4; conditions: Ki against the M4 receptor; membranes from CHO cells expressing human M4; tritiated N-methylscopolamine 1.5 nM; read-out: Ki
Sequence of human M4 receptor (P08173 whole entry): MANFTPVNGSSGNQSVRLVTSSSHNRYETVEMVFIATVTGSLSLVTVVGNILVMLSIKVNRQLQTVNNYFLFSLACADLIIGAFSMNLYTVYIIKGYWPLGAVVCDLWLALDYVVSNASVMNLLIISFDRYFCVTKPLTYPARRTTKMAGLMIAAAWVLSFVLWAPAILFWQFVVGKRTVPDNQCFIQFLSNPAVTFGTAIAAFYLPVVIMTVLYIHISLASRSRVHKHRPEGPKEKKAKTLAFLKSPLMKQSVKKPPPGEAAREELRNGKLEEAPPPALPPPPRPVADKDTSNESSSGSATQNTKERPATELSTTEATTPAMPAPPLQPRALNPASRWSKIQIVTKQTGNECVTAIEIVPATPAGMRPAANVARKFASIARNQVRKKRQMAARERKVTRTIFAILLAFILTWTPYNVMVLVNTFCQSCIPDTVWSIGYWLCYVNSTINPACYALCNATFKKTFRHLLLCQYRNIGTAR
Summary of the method: as §1

human M1 receptor = human M1 receptor (Homo sapiens (Human), UniProt P11229); test: Radioligand (tritiated N-methylscopolamine) binding assay, M1; conditions: CHO cell membranes expressing human M1; 1.5 nM tritiated N-methylscopolamine; 90 min, 37° C.; read-out: Ki against M1 receptor (Table 21, M1)
Sequence of human M1 receptor (P11229 whole entry): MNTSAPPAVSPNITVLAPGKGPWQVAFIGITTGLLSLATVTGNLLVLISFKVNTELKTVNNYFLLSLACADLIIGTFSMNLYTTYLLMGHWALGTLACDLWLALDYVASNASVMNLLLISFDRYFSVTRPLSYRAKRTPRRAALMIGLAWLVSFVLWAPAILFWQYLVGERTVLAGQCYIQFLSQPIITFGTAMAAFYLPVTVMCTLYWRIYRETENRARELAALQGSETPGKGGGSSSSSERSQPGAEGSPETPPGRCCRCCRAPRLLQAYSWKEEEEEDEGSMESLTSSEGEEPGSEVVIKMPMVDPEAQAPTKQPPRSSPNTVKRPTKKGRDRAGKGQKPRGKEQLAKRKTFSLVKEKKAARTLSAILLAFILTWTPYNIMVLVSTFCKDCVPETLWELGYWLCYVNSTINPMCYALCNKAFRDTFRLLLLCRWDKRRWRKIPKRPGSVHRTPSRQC
Summary of the method: as §1

Row | SMILES | Ki (human M3 receptor) [nM] | Ki (human M2 receptor) [nM] | Ki (human M5 receptor) [nM] | Ki (human M4 receptor) [nM] | Ki (human M1 receptor) [nM]
1 | C[C@@H]1CN(c2ccc(F)c(C#N)c2)CCN1C(=O)NC[C@H](O)C1CCN(Cc2ccccc2)CC1 [7-12, (2R)-N-[(2R)-2-(1-benzylpiperidin-4-yl)-2-hydroxyethyl]-4-(3-cyano-4-fluorophenyl)-2-methylpiperazine-1-carboxamide] | > 1000 | > 1000 | > 1000 | < 10 | > 1000
2 | C[C@@H]1CN(c2cc(F)cc(C#N)c2)CCN1C(=O)NC[C@@H](O)C1CCN(Cc2ccccc2)CC1 [9-5, (2R)-N-[(2S)-2-(1-benzylpiperidin-4-yl)-2-hydroxyethyl]-4-(3-cyano-5-fluorophenyl)-2-methylpiperazine-1-carboxamide] | > 1000 | > 1000 | > 1000 | < 10 | > 1000
3 | C[C@@H]1CN(c2ncc(C#N)cn2)C[C@H](C)N1C(=O)NCCC1CCN(Cc2ccc(O)cc2)CC1 [6-42, (2R,6S)-4-(5-cyanopyrimidin-2-yl)-N-(2-{1-[(4-hydroxyphenyl)-methyl]piperidin-4-yl}ethyl)-2,6-dimethylpiperazine-1-carboxamide] | 100 to 1000 | 10 to 100 | > 1000 | < 10 | > 1000
4 | Cc1c(C(=O)NC[C@H](O)C2CCN(Cc3ccccc3)CC2)cnc2cc(-c3cccc(C(F)(F)F)c3)nn12 [17-6, N-[(2R)-2-(1-benzylpiperidin-4-yl)-2-hydroxyethyl]-7-methyl-2-[3-(trifluoromethyl)phenyl]pyrazolo[1,5-a]pyrimidine-6-carboxamide] | > 1000 | 100 to 1000 | > 1000 | < 10 | > 1000
5 | C[C@@H]1CN(c2ncc(C(F)(F)F)cn2)CCN1C(=O)NCCC1CCN(Cc2cccc(F)c2)CC1 [6-36, (2R)-N-(2-{1-[(3-fluorophenyl)methyl]piperidin-4-yl}ethyl)-2-methyl-4-[5-(trifluoromethyl)pyrimidin-2-yl]piperazine-1-carboxamide] | > 1000 | 100 to 1000 | > 1000 | < 10 | 100 to 1000
6 | C[C@@H]1CN(c2ccc(C#N)cc2)C[C@H](C)N1C(=O)NCCC1CCN(Cc2ccccc2)CC1 [22-2] | > 1000 | 100 to 1000 | > 1000 | < 10 | > 1000
7 | C[C@@H]1CN(c2ncc(Cl)cn2)C[C@H](C)N1C(=O)NCCC1CCN(Cc2ccccc2)CC1 [5-18, (2S,6R)-N-[2-(1-benzylpiperidin-4-yl)ethyl]-4-(5-chloropyrimidin-2-yl)-2,6-dimethylpiperazine-1-carboxamide] | > 1000 | 10 to 100 | > 1000 | < 10 | > 1000
8 | C[C@@H]1CN(c2ncc(C(F)(F)F)cn2)C[C@H](C)N1C(=O)NCCC1CCN(Cc2ccccc2)CC1 [5-27, (2R,6S)-N-[2-(1-benzylpiperidin-4-yl)ethyl]-2,6-dimethyl-4-[5-(trifluoromethyl)pyrimidin-2-yl]piperazine-1-carboxamide] | > 1000 | 100 to 1000 | > 1000 | < 10 | 100 to 1000
9 | C[C@@H]1CN(c2ccc(F)c(C#N)c2)CCN1C(=O)NCCC1(O)CCN(Cc2ccccc2)CC1 [7-11, (2R)-N-[2-(1-benzyl-4-hydroxypiperidin-4-yl)ethyl]-4-(3-cyano-4-fluorophenyl)-2-methylpiperazine-1-carboxamide] | > 1000 | > 1000 | > 1000 | < 10 | > 1000
10 | O=C(NCCC1CCN(Cc2ccccc2)CC1)c1ccc(-c2ccc(OC(F)(F)F)cc2)cc1 [9-7, N-[2-(1-benzylpiperidin-4-yl)ethyl]-4-[4-(trifluoromethoxy)phenyl]benzamide] | > 1000 | 100 to 1000 | > 1000 | < 10 | 100 to 1000
11 | C[C@H]1CN(c2ncc(C(F)(F)F)cn2)CCC1C(=O)NCCC1CCN(Cc2ccccc2)CC1 (stereo partly drawn) [20-2, (3R)-N-[2-(1-benzylpiperidin-4-yl)ethyl]-3-methyl-1-[5-(trifluoromethyl)pyrimidin-2-yl]piperidine-4-carboxamide] | 10 to 100 | 10 to 100 | 100 to 1000 | < 10 | 10 to 100

Now from value to molecule:

Row | Ki (human M3 receptor) [nM] | Ki (human M2 receptor) [nM] | Ki (human M5 receptor) [nM] | Ki (human M4 receptor) [nM] | Ki (human M1 receptor) [nM] | SMILES
12 | > 1000 | 100 to 1000 | > 1000 | < 10 | > 1000 | O=C(NCCC1CCN(Cc2ccccc2)CC1)C1CCN(c2ccc(F)c(F)c2)CC1 [10-21, N-[2-(1-benzylpiperidin-4-yl)ethyl]-1-(3,4-difluorophenyl)piperidine-4-carboxamide]
13 | > 1000 | 10 to 100 | > 1000 | < 10 | 100 to 1000 | C[C@@H]1CN(c2cc(F)c(F)c(F)c2)CCN1C(=O)NCCC1CCN(Cc2cccs2)CC1 [6-26, (2R)-2-methyl-N-{2-[1-(thiophen-2-ylmethyl)piperidin-4-yl]ethyl}-4-(3,4,5-trifluorophenyl)piperazine-1-carboxamide]
14 | 100 to 1000 | 10 to 100 | > 1000 | < 10 | 100 to 1000 | C[C@@H]1CN(c2cc(F)c(F)c(Cl)c2)CCN1C(=O)NCCC1CCN(Cc2ccccc2)CC1 [4-52, (2R)-N-[2-(1-benzylpiperidin-4-yl)ethyl]-4-(3-chloro-4,5-difluorophenyl)-2-methylpiperazine-1-carboxamide]
15 | > 1000 | 100 to 1000 | > 1000 | < 10 | > 1000 | C[C@@H]1CN(c2cc(F)c(F)c(F)c2)CCN1C(=O)NCCC1CCN(Cc2ccccc2)CC1CO (stereo partly drawn) [3-17, (2R)-N-{2-[1-benzyl-3-(hydroxymethyl)piperidin-4-yl]ethyl}-2-methyl-4-(3,4,5-trifluorophenyl)piperazine-1-carboxamide]
16 | > 1000 | 100 to 1000 | > 1000 | < 10 | > 1000 | O=C(NCCC1CCN(Cc2ccccc2)CC1CO)N1CCN(c2cc(F)c(F)c(F)c2)CC1 (centres unmarked) [3-19, N-{2-[1-benzyl-3-(hydroxymethyl)piperidin-4-yl]ethyl}-4-(3,4,5-trifluorophenyl)piperazine-1-carboxamide]
17 | 100 to 1000 | 10 to 100 | > 1000 | < 10 | 100 to 1000 | C[C@@H]1CN(c2cc(C(F)(F)F)ccn2)CCN1C(=O)NCCC1CCN(Cc2ccccc2)CC1 [4-12, (2R)-N-[2-(1-benzylpiperidin-4-yl)ethyl]-2-methyl-4-[4-(trifluoromethyl)pyridin-2-yl]piperazine-1-carboxamide]
18 | 100 to 1000 | 10 to 100 | 100 to 1000 | < 10 | 100 to 1000 | C[C@@H]1CN(c2cc(F)c(F)c(Cl)c2)C[C@H](C)N1C(=O)NCCC1CCN(Cc2ccccc2)CC1 [22-7]
19 | > 1000 | 100 to 1000 | > 1000 | < 10 | > 1000 | C[C@@H]1CN(C(=O)NCCC2CCN(Cc3ccccc3)CC2)CCN1c1ccc(OC(F)(F)F)cc1 [4-18, (3R)-N-[2-(1-benzylpiperidin-4-yl)ethyl]-3-methyl-4-[4-(trifluoromethoxy)phenyl]piperazine-1-carboxamide]
